Measurements taken from ChEMBL document CHEMBL1125668, “Synthesis and anti-HIV activity of 2-, 3-, and 4-substituted analogues of 1-[(2-hydroxyethoxy)methyl]-6-(phenylthio)thymine (HEPT)” (J Med Chem, 1991).

Legend:
[1] = system: Human immunodeficiency virus 2; assay: Inhibitory activity against HIV-2(LAV-2EHO strain) replication in MT-4 cells; type: functional, organism-based; settings: Human immunodeficiency virus 2, MT4
[2] = system: Human immunodeficiency virus 2; assay: Inhibitory activity against HIV-2(LAV-2ROD strain) replication in MT-4 cells; type: functional, organism-based; settings: Human immunodeficiency virus 2, MT4
[3] = system: Human immunodeficiency virus 1; assay: Inhibitory activity against HIV-1 (HTLV-IIIB strain) replication in MT-4 cells; type: functional, organism-based; settings: Human immunodeficiency virus 1, MT4
[4] = system: Human immunodeficiency virus 1; assay: Inhibitory activity against HIV-1 (HTLV-IIIB strain) replication in peripheral blood lymphocytes; type: functional, organism-based
[5] = system: Human immunodeficiency virus 1; assay: Inhibitory activity against HIV-1 (HTLV-IIIRF strain) replication in MT-4 cells; type: functional, organism-based; settings: Human immunodeficiency virus 1, MT4
[6] = system: Human immunodeficiency virus 1; assay: Cytotoxic concentration of compound required to incorporate [5-3H]-Urd into RNA of mock infected peripheral blood lymphocytes in HIV-1 (HTLV-IIIB)by 50%; type: functional
[7] = system: Human immunodeficiency virus 1; assay: Cytotoxic concentration of compound required to reduce the viability of mock infected MT-4 cells against the HIV-1 (HTLV-IIIB)induced cytopathic effect; type: functional; settings: Human immunodeficiency virus 1, MT4

SMILES: Cc1c(Sc2ccccc2)n(COCCO)c(=S)[nH]c1=O
- EC50 [1]: > 100 µM
- EC50 [2]: > 100 µM
- EC50 [3]: 0.98 µM
- EC50 [4]: 2.9 µM
- EC50 [5]: 2.5 µM
- CC50 [6]: 292 µM
- CC50 [7]: 123 µM

SMILES: Cc1c(Sc2ccccc2)n(COCCO)c(=O)n(C)c1=O
- EC50 [3]: > 374 µM
- CC50 [7]: > 374 µM

SMILES: Cc1c(N)nc(=O)n(COCCO)c1Sc1ccccc1
- EC50 [3]: > 91 µM
- CC50 [7]: 91 µM

SMILES: Cc1cn([C@H]2C[C@H](N=[N+]=[N-])[C@@H](CO)O2)c(=O)[nH]c1=O [ZIDOVUDINE]
- EC50 [2]: 0.0028 µM
- EC50 [3]: 0.003 µM
- CC50 [7]: 7.8 µM

SMILES: Nc1ncnc2c1ncn2[C@H]1CC[C@@H](CO)O1
- EC50 [2]: 7.2 µM
- EC50 [3]: 6.3 µM
- CC50 [7]: > 500 µM

SMILES: O=c1[nH]c(=S)cc(Sc2ccccc2)n1COCCO
- EC50 [3]: > 4.1 µM
- CC50 [7]: 4.1 µM

SMILES: Nc1cc(Sc2ccccc2)n(COCCO)c(=O)n1
- EC50 [3]: > 250 µM
- CC50 [7]: > 250 µM

SMILES: Cc1c(Sc2ccccc2)n(COCCO)c(=O)n(Cc2ccccc2)c1=O
- EC50 [3]: > 40 µM
- CC50 [7]: 40 µM

SMILES: Cc1c(Sc2ccccc2)n(COCCO)c(=O)[nH]c1=O [HEPT]
- EC50 [1]: > 250 µM
- EC50 [2]: > 250 µM
- EC50 [3]: 7 µM
- EC50 [4]: 7.9 µM
- EC50 [5]: 8.1 µM
- CC50 [6]: 640 µM
- CC50 [7]: 740 µM

SMILES: O=c1cc(Sc2ccccc2)n(COCCO)c(=S)[nH]1
- EC50 [3]: > 198 µM
- CC50 [7]: 198 µM

SMILES: Cc1c(Sc2ccccc2)n(COCCO)c(=O)[nH]c1=S
- EC50 [3]: > 27 µM
- CC50 [7]: 27 µM
